Laboratory results: patent US20050197292A1, “Compositions and methods for treating T-cell mediated pathological conditions” (priority 2004, published 2005)

Experiments:
[1] = tested on: CD8 T cells; test: TCR-CD28 co-stimulated proliferation, [3H] thymidine incorporation, CD8 T cells; format: cell-based, human; settings: anti-CD3 150 ng/ml and anti-CD28 1 μg/ml coated, 72 h
Method: (§1) 96-well plates were coated with the anti-CD3 and anti-CD28 mAb at 150 ng/ml and 1 μg/ml respectively in PBS overnight at 4° C., aspirated and coated with the control protein, CG57008-15, CG57008-12 or CG57008-14 for 4 hr at 37° C. Wells were aspirated and 150 μl of purified Human CD4+, CD8+ or polarized TH2 cells from healthy blood donors, or purified CD4+ or CD8+ T cells from B6 mice at a concentration of 0.7×10^6 cells/ml were added and cultured for 72 h at 37° C. Proliferation was measured by [^3H] thymidine incorporation by pulsing cells with 0.5 μCi of [^3H] thymidine 8 hr prior to harvesting. Cytokines were measured by ELISA using cells harvested at 72 hr.

[2] = tested on: CD4 T cells; test: TCR-CD28 co-stimulated proliferation, [3H] thymidine incorporation, CD4 T cells; format: cell-based, human; settings: anti-CD3 150 ng/ml and anti-CD28 1 μg/ml coated, 72 h
Method: as §1

Q: How did the “proliferation of CD8 T cells” value [1] turn out when “CG201877-02 (ECD/FC): Tim1 - Mus musculus; Mature Igkappa, ECD, Fc, V5, His” was run?
A: significantly inhibited

Q: And the “proliferation of CD4 T cells” value [2]?
A: significantly inhibited
